# Assay results as given in patent US20050037926A1, “Pesticide preparations containing copolymers” (priority 2001, published 2005).
# Key:
# Type in all cases: in vivo
# Settings in all cases: 600 g copolymer where named, 300 l/ha, 21 days at 20° C.
# [1] = system: Echinochloa crus-galli (ECHCG); experiment: Greenhouse herbicidal action of glyphosate test formulations
# Description: (§1) Test formulations were prepared with in each case 200 g, 300 g and 500 g of glyphosate and in each case 600 g of the copolymers I to V in 300 l of water. The data by weight refer to 100% active ingredient and 100% adjuvant. An amount of the formulation corresponding to the ratio 300 l/ha was applied in a greenhouse to the plant species Abutilon theophrasti (ABUTH), Sesbania exaltata (SEBEX), Pharbitis purpurea (PHBPU), Galium aparine (GALAP), Amaranthus retroflexus (AMARE) and Echinochloa crus-galli (ECHCG), and, after 21 days at 20° C., the plant growth was assessed according to a % scale.
# (§2) 0% means no effect and 100% means complete destruction of the types of plant.
# [2] = system: Pharbitis purpurea (PHBPU); experiment: as above
# Description: as §1, §2
# [3] = system: Amaranthus retroflexus (AMARE); experiment: as above
# Description: as §1, §2
# [4] = system: Galium aparine (GALAP); experiment: as above
# Description: as §1, §2
# [5] = system: Abutilon theophrasti (ABUTH); experiment: as above
# Description: as §1, §2
# [6] = system: Sesbania exaltata (SEBEX); experiment: as above
# Description: as §1, §2
# [7] = system: SEBEX, AMARE, GALAP, ABUTH, ECHCG, PHBPU; experiment: Greenhouse herbicidal action, total over the six plant species
# Description: as §1, §2
structure (smiles),measurement,setting,value
"O=C(O)CNCP(=O)(O)O [Glyphosate, N-phosphonomethylglycine]",herbicidal action ECHCG (plant growth assessed on % scale),[1]; glyphosate 200 g/ha,15%
same,herbicidal action ECHCG (plant growth assessed on % scale),[1]; glyphosate 300 g/ha,20%
same,herbicidal action ECHCG (plant growth assessed on % scale),[1]; glyphosate 500 g/ha,40%
same,herbicidal action PHBPU (plant growth assessed on % scale),[2]; glyphosate 200 g/ha,10%
same,herbicidal action PHBPU (plant growth assessed on % scale),[2]; glyphosate 300 g/ha,20%
same,herbicidal action PHBPU (plant growth assessed on % scale),[2]; glyphosate 500 g/ha,40%
same,herbicidal action AMARE (plant growth assessed on % scale),[3]; glyphosate 200 g/ha,20%
same,herbicidal action AMARE (plant growth assessed on % scale),[3]; glyphosate 300 g/ha,45%
same,herbicidal action AMARE (plant growth assessed on % scale),[3]; glyphosate 500 g/ha,65%
same,herbicidal action GALAP (plant growth assessed on % scale),[4]; glyphosate 200 g/ha,5%
same,herbicidal action GALAP (plant growth assessed on % scale),[4]; glyphosate 300 g/ha,20%
same,herbicidal action GALAP (plant growth assessed on % scale),[4]; glyphosate 500 g/ha,40%
same,herbicidal action ABUTH (plant growth assessed on % scale),[5]; glyphosate 200 g/ha,0%
same,herbicidal action ABUTH (plant growth assessed on % scale),[5]; glyphosate 300 g/ha,10%
same,herbicidal action ABUTH (plant growth assessed on % scale),[5]; glyphosate 500 g/ha,15%
same,herbicidal action SEBEX (plant growth assessed on % scale),"[6]; glyphosate 200 g/ha, 0% no effect, 100% complete destruction",10%
same,herbicidal action SEBEX (plant growth assessed on % scale),[6]; glyphosate 300 g/ha,15%
same,herbicidal action SEBEX (plant growth assessed on % scale),[6]; glyphosate 500 g/ha,30%
same,herbicidal action Total,[7]; glyphosate 200 g/ha,10%
same,herbicidal action Total,[7]; glyphosate 300 g/ha,22%
same,herbicidal action Total,[7]; glyphosate 500 g/ha,38%
